In DBAASP:
In brackets after ≈: the same amount, converted by molar mass. Each block holds one compound with its values, some of them ahead of it.

How the values were obtained:
Test in all cases: ≥ marks a high value that may be exact or a test limit, other limits are often not marked, values filed in µg/mL are converted to µM
Escherichia coli JW0013 = tested on: Escherichia coli JW0013
Bacillus subtilis 168 = tested on: Bacillus subtilis 168
Staphylococcus aureus = tested on: Staphylococcus aureus
Escherichia coli B = tested on: Escherichia coli B
Pseudomonas aeruginosa = tested on: Pseudomonas aeruginosa
Micrococcus luteus = tested on: Micrococcus luteus
[1] = tested on: Staphylococcus epidermidis
Klebsiella pneumoniae = tested on: Klebsiella pneumoniae
[2] = tested on: Staphylococcus aureus ATCC 25923
[3] = tested on: Klebsiella pneumoniae ATCC 13883
[4] = tested on: Escherichia coli ATCC 25922
[5] = tested on: Pseudomonas aeruginosa ATCC 27853
Escherichia coli = tested on: Escherichia coli
[6] = tested on: Staphylococcus epidermidis KCTC 1917
[7] = tested on: Pseudomonas aeruginosa KCTC 1637
[8] = tested on: Escherichia coli KCTC 1682
[9] = tested on: Staphylococcus aureus KCTC 1621
[10] = tested on: Salmonella typhimurium KCTC 1926

Structure (SMILES): CC[C@H](C)[C@H](NC(=O)[C@H](CCCN=C(N)N)NC(=O)[C@H](CCCN=C(N)N)NC(=O)[C@@H]1CCCN1C(=O)[C@@H]1CCCN1C(=O)[C@H](CCCN=C(N)N)NC(=O)[C@@H]1CCCN1C(=O)[C@H](CCCN=C(N)N)NC(=O)[C@@H]1CCCN1C(=O)[C@H](CC(C)C)NC(=O)[C@H](Cc1ccc(O)cc1)NC(=O)[C@@H]1CCCN1C(=O)[C@@H]1CCCN1C(=O)[C@H](CCCCN)NC(=O)[C@H](CC(=O)O)NC(=O)[C@H](C)N)C(=O)N[C@@H](Cc1ccc(O)cc1)C(=O)N[C@@H](CC(N)=O)C(=O)N[C@@H](CCCN=C(N)N)C(N)=O [ADKPPYLPRPRPPRRIYNR]
MIC (Escherichia coli JW0013): 2.03 µM (≈ 4.8 µg/mL)

Structure (SMILES): CC[C@H](C)[C@H](NC(=O)[C@H](Cc1cnc[nH]1)NC(=O)[C@H](CCCCN)NC(=O)[C@H](CC(C)C)NC(=O)[C@H](CC(C)C)NC(=O)[C@H](CO)NC(=O)[C@H](CCSC)NC(=O)[C@H](Cc1ccccc1)NC(=O)[C@H](CCCCN)NC(=O)CN)C(=O)N[C@@H](CC(C)C)C(=O)N[C@@H](CCCCN)C(N)=O [GKFMSLLKHILK]
MIC (Bacillus subtilis 168): 1.5 µM (≈ 2.12 µg/mL)
MIC (Staphylococcus aureus): 43.3 µM (≈ 61.2 µg/mL)
MIC (Escherichia coli B): 5.8 µM (≈ 8.2 µg/mL)
MIC (Pseudomonas aeruginosa): 30 µM (≈ 42.4 µg/mL)

Structure (SMILES): CC[C@H](C)[C@H](NC(=O)CNC(=O)[C@H](CO)NC(=O)[C@H](CC(C)C)NC(=O)[C@H](C)NC(=O)[C@H](CC(=O)O)NC(=O)[C@H](CC(C)C)NC(=O)[C@H](CC(C)C)NC(=O)CN)C(=O)N[C@@H](CC(C)C)C(=O)NCC(=O)N[C@@H](CC(C)C)C(N)=O [GLLDALSGILGL]
MIC (Micrococcus luteus): 21.9 µM (≈ 25 µg/mL)

Structure (SMILES): CC(C)[C@H](NC(=O)CNC(=O)[C@@H](N)Cc1cnc[nH]1)C(=O)N[C@@H](CO)C(=O)NCC(=O)N[C@@H](Cc1cnc[nH]1)C(=O)NCC(=O)N[C@@H](CCC(N)=O)C(=O)N[C@@H](Cc1cnc[nH]1)C(=O)NCC(=O)N[C@H](C(=O)N[C@@H](Cc1cnc[nH]1)C(=O)NCC(=O)O)[C@@H](C)O [HGVSGHGQHGTHG]
MIC [1]: 12.6 µM (≈ 16 µg/mL)
MIC (Klebsiella pneumoniae): 6.31 µM (≈ 8 µg/mL)
MIC [2]: 6.31 µM (≈ 8 µg/mL)
MIC [3]: 6.31 µM (≈ 8 µg/mL)
MIC [4]: 3.16 µM (≈ 4 µg/mL)
MIC (Staphylococcus aureus): 12.6 µM (≈ 16 µg/mL)
MIC [5]: 6.31 µM (≈ 8 µg/mL)
MIC (Escherichia coli): 6.31 µM (≈ 8 µg/mL)
MIC (Pseudomonas aeruginosa): 12.6 µM (≈ 16 µg/mL)

Structure (SMILES): C[C@H](NC(=O)[C@H](Cc1c[nH]c2ccccc12)NC(=O)[C@H](CCCCN)NC(=O)[C@H](CCCN=C(N)N)NC(=O)CNC(=O)[C@H](Cc1c[nH]c2ccccc12)NC(=O)[C@H](CCCN=C(N)N)NC(=O)[C@H](CCCN=C(N)N)NC(=O)[C@H](Cc1c[nH]c2ccccc12)NC(=O)CNC(=O)[C@@H](N)CCCN=C(N)N)C(=O)N[C@@H](Cc1cnc[nH]1)C(=O)NCC(=O)N[C@@H](Cc1c[nH]c2ccccc12)C(=O)N[C@@H](CCCCN)C(=O)N[C@@H](CCCCN)C(=O)N[C@@H](Cc1ccc(O)cc1)C(=O)NCC(N)=O [RGWRRWGRKWAHGWKKYG]
MIC [6]: 2 µM (≈ 4.74 µg/mL)
MIC [7]: 8 µM (≈ 19 µg/mL)
MIC [8]: 4 µM (≈ 9.48 µg/mL)
MIC [9]: 4 µM (≈ 9.48 µg/mL)
MIC [10]: 2 µM (≈ 4.74 µg/mL)

Structure (SMILES): CC(C)C[C@H](NC(=O)[C@H](CCCN=C(N)N)NC(=O)[C@@H]1CCCN1C(=O)[C@@H]1CCCN1C(=O)[C@H](CCCN=C(N)N)NC(=O)[C@@H]1CCCN1C(=O)[C@H](CCCN=C(N)N)NC(=O)[C@H](CCCN=C(N)N)NC(=O)[C@H](CCCN=C(N)N)NC(=O)[C@@H](N)CCCN=C(N)N)C(=O)N1CCC[C@H]1C(=O)N[C@@H](CCCN=C(N)N)C(=O)N1CCC[C@H]1C(=O)N[C@@H](CCCN=C(N)N)C(=O)N1CCC[C@H]1C(=O)N[C@@H](CCCN=C(N)N)C(=O)O [RRRRPRPPRLPRPRPR]
MIC (Escherichia coli JW0013): 0.3 µM (≈ 0.636 µg/mL)

Structure (SMILES): CC[C@H](C)[C@H](NC(=O)[C@H](CCCN=C(N)N)NC(=O)[C@H](CCCN=C(N)N)NC(=O)[C@@H]1CCCN1C(=O)[C@@H]1CCCN1C(=O)[C@H](CCCN=C(N)N)NC(=O)[C@@H]1CCCN1C(=O)[C@H](CCCN=C(N)N)NC(=O)[C@@H]1CCCN1C(=O)[C@H](CC(C)C)NC(=O)[C@H](Cc1ccc(O)cc1)NC(=O)[C@@H]1CCCN1C(=O)[C@H](C)NC(=O)[C@H](CCCCN)NC(=O)[C@H](CC(=O)O)NC(=O)[C@@H](N)C(C)C)C(=O)N[C@@H](Cc1ccc(O)cc1)C(=O)N[C@@H](CC(N)=O)C(=O)N[C@@H](CCCN=C(N)N)C(N)=O [VDKAPYLPRPRPPRRIYNR]
MIC (Escherichia coli JW0013): 1.4 µM (≈ 3.3 µg/mL)

The remaining lines, values ahead:

MIC (Escherichia coli JW0013): 1.97 µM (≈ 4.8 µg/mL)
Structure (SMILES): CC[C@H](C)[C@H](NC(=O)[C@H](CCCN=C(N)N)NC(=O)[C@H](CCCN=C(N)N)NC(=O)[C@@H]1CCCN1C(=O)[C@@H]1CCCN1C(=O)[C@H](CCCN=C(N)N)NC(=O)[C@@H]1CCCN1C(=O)[C@H](CCCN=C(N)N)NC(=O)[C@@H]1CCCN1C(=O)[C@H](CC(C)C)NC(=O)[C@H](Cc1ccc(O)cc1)NC(=O)[C@@H]1CCCN1C(=O)[C@H](Cc1cnc[nH]1)NC(=O)[C@H](CCCCN)NC(=O)[C@H](CC(=O)O)NC(=O)[C@@H](N)C(C)C)C(=O)N[C@@H](Cc1ccc(O)cc1)C(=O)N[C@@H](CC(N)=O)C(=O)N[C@@H](CCCN=C(N)N)C(N)=O [VDKHPYLPRPRPPRRIYNR]

MIC (Escherichia coli JW0013): 0.978 µM (≈ 2.4 µg/mL)
Structure (SMILES): CC[C@H](C)[C@H](NC(=O)[C@H](CCCN=C(N)N)NC(=O)[C@H](CCCN=C(N)N)NC(=O)[C@@H]1CCCN1C(=O)[C@@H]1CCCN1C(=O)[C@H](CCCN=C(N)N)NC(=O)[C@@H]1CCCN1C(=O)[C@H](CCCN=C(N)N)NC(=O)[C@@H]1CCCN1C(=O)[C@H](CC(C)C)NC(=O)[C@H](CCCN=C(N)N)NC(=O)[C@H](Cc1cnc[nH]1)NC(=O)[C@H](CCCCN)NC(=O)[C@H](CCCCN)NC(=O)[C@H](CC(=O)O)NC(=O)[C@@H](N)C(C)C)C(=O)N[C@@H](Cc1ccc(O)cc1)C(=O)N[C@@H](CC(N)=O)C(=O)N[C@@H](CCCN=C(N)N)C(N)=O [VDKKHRLPRPRPPRRIYNR]

MIC (Escherichia coli JW0013): 2.02 µM (≈ 4.8 µg/mL)
Structure (SMILES): CC[C@H](C)[C@H](NC(=O)[C@H](CCCN=C(N)N)NC(=O)[C@H](CCCN=C(N)N)NC(=O)[C@@H]1CCCN1C(=O)[C@@H]1CCCN1C(=O)[C@H](CCCN=C(N)N)NC(=O)[C@@H]1CCCN1C(=O)[C@H](Cc1cnc[nH]1)NC(=O)[C@@H]1CCCN1C(=O)[C@H](CC(C)C)NC(=O)[C@H](Cc1ccc(O)cc1)NC(=O)[C@@H]1CCCN1C(=O)[C@@H]1CCCN1C(=O)[C@H](CCCCN)NC(=O)[C@H](CC(=O)O)NC(=O)[C@@H](N)C(C)C)C(=O)N[C@@H](Cc1ccc(O)cc1)C(=O)N[C@@H](CC(N)=O)C(=O)N[C@@H](CCCN=C(N)N)C(N)=O [VDKPPYLPHPRPPRRIYNR]

MIC (Escherichia coli JW0013): 1.95 µM (≈ 4.8 µg/mL)
Structure (SMILES): CC[C@H](C)[C@H](NC(=O)[C@H](CCCN=C(N)N)NC(=O)[C@H](CCCN=C(N)N)NC(=O)[C@@H]1CCCN1C(=O)[C@@H]1CCCN1C(=O)[C@H](CCCN=C(N)N)NC(=O)[C@H](Cc1ccc(O)cc1)NC(=O)[C@H](CCCN=C(N)N)NC(=O)[C@@H]1CCCN1C(=O)[C@H](CC(C)C)NC(=O)[C@H](Cc1ccc(O)cc1)NC(=O)[C@@H]1CCCN1C(=O)[C@@H]1CCCN1C(=O)[C@H](CCCCN)NC(=O)[C@H](CC(=O)O)NC(=O)[C@@H](N)C(C)C)C(=O)N[C@@H](Cc1ccc(O)cc1)C(=O)N[C@@H](CC(N)=O)C(=O)N[C@@H](CCCN=C(N)N)C(N)=O [VDKPPYLPRYRPPRRIYNR]

MIC (Escherichia coli JW0013): 0.316 µM (≈ 0.8 µg/mL)
Structure (SMILES): CC[C@H](C)[C@H](NC(=O)[C@H](CCCN=C(N)N)NC(=O)[C@H](CCCN=C(N)N)NC(=O)[C@@H]1CCCN1C(=O)[C@@H]1CCCN1C(=O)[C@H](CCCN=C(N)N)NC(=O)[C@@H]1CCCN1C(=O)[C@H](CCCN=C(N)N)NC(=O)[C@@H]1CCCN1C(=O)[C@H](CCCN=C(N)N)NC(=O)[C@H](Cc1ccc(O)cc1)NC(=O)[C@H](Cc1cnc[nH]1)NC(=O)[C@H](CCCN=C(N)N)NC(=O)[C@H](CCCCN)NC(=O)[C@H](CC(=O)O)NC(=O)[C@@H](N)C(C)C)C(=O)N[C@@H](Cc1ccc(O)cc1)C(=O)N[C@@H](CC(N)=O)C(=O)N[C@@H](CCCN=C(N)N)C(N)=O [VDKRHYRPRPRPPRRIYNR]

MIC (Escherichia coli JW0013): 0.647 µM (≈ 1.6 µg/mL)
Structure (SMILES): CC[C@H](C)[C@H](NC(=O)[C@H](CCCN=C(N)N)NC(=O)[C@H](CCCN=C(N)N)NC(=O)[C@@H]1CCCN1C(=O)[C@@H]1CCCN1C(=O)[C@H](CCCN=C(N)N)NC(=O)[C@H](CCCCN)NC(=O)[C@H](CCCN=C(N)N)NC(=O)[C@@H]1CCCN1C(=O)[C@H](CC(C)C)NC(=O)[C@H](CCCN=C(N)N)NC(=O)[C@@H]1CCCN1C(=O)[C@H](CCCN=C(N)N)NC(=O)[C@H](CCCCN)NC(=O)[C@H](CC(=O)O)NC(=O)[C@@H](N)C(C)C)C(=O)N[C@@H](Cc1ccc(O)cc1)C(=O)N[C@@H](CC(N)=O)C(=O)N[C@@H](CCCN=C(N)N)C(N)=O [VDKRPRLPRKRPPRRIYNR]

MIC (Escherichia coli JW0013): 0.532 µM (≈ 1.3 µg/mL)
Structure (SMILES): CC[C@H](C)[C@H](NC(=O)[C@H](CCCN=C(N)N)NC(=O)[C@H](CCCN=C(N)N)NC(=O)[C@@H]1CCCN1C(=O)[C@@H]1CCCN1C(=O)[C@H](CCCN=C(N)N)NC(=O)[C@@H]1CCCN1C(=O)[C@H](CCCN=C(N)N)NC(=O)[C@@H]1CCCN1C(=O)[C@H](CC(C)C)NC(=O)[C@H](CCCN=C(N)N)NC(=O)[C@@H]1CCCN1C(=O)[C@H](CCCN=C(N)N)NC(=O)[C@H](CCCCN)NC(=O)[C@H](CC(=O)O)NC(=O)[C@@H](N)C(C)C)C(=O)N[C@@H](Cc1ccc(O)cc1)C(=O)N[C@@H](CC(N)=O)C(=O)N[C@@H](CCCN=C(N)N)C(N)=O [VDKRPRLPRPRPPRRIYNR]
